Measurements taken from patent publication US7759366B2 (Sanofi-Aventis, priority 2006, dated 2010).

Target: T1, hCB1R (Homo sapiens, UniProt P21554)
Experiment: Binding to the CB1 receptor ([3H]-SR141716A displacement)
Conditions: not given
Procedure: Binding to the CB1 Receptor:
Test compounds: The compounds (3 μl, 10 mM, 100% DMSO), pipetted into 96-well PP microtiter plates, were diluted with 27 μl of 100% DMSO (dimethyl sulfoxide). Proceeding from this solution, further 3-fold dilution steps were undertaken by transferring 10 μl in each case to a new PP microtiter plate and adding a further 20 μl of 100% DMSO. In each case 6 μl of these solutions were transferred into new 96-well PP microtiter plates and made up with 144 μl of assay buffer. The end concentrations ranged from 10 μM to 0.005 μM. Negative control: AM 251, dissolved in assay buffer with 1% DMSO, was added to the dilution series in the microtiter plates as a control. The end concentration was 1 μM. Blank control: assay buffer with 1% DMSO was added to the dilution series of the microtiter plates as a blank control.
Summary of the Assay Parameters:
High control: ^3H binding without addition of the compound
Low control: ^3H binding in the presence of 1 μM AM 251
The values were calculated using the corrected raw data.
The values reported were obtained as average values of a double determination. The IC50 values were calculated from the measurements with the program Xlfit, formula 205. Ki values were obtained from the IC50 and Kd values utilizing the Cheng-Prusoff equation: […]
Literature: Cheng, Y.-C., and Prusoff, W. H. (1973) Biochem. Pharmacol 22, 3099-3108

T1 sequence (P21554 whole entry): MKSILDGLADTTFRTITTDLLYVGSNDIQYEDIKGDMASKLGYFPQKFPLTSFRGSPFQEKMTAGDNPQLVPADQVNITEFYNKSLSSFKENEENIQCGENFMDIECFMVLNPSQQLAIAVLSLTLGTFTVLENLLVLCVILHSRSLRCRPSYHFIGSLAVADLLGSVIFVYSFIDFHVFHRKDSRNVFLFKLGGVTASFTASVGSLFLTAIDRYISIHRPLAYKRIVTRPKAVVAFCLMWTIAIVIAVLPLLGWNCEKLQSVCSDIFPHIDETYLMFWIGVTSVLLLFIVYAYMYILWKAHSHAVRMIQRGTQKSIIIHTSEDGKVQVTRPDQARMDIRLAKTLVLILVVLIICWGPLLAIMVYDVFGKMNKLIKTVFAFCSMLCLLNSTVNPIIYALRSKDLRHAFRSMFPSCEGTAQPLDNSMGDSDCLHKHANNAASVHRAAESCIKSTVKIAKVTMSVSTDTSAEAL

SMILES	Ki [nM]
COC(=O)c1ccc(Nc2cc(F)ccc2CN2C(=O)N(c3ccc(C#N)c(C)c3)C(=O)C2(C)C)cc1 [Example 160, Methyl 4-{2-[3-(4-cyano-3-methylphenyl)-5,5-dimethyl-2,4-dioxoimidazolidin-1-ylmethyl]-5-fluorophenylamino}benzoate]	3
CC1(C)C(=O)N(c2ccc(C#N)c(C(F)(F)F)c2)C(=O)N1Cc1ccccc1Nc1ccc(C(=O)NCCO)cc1 [Example 149, 4-{2-[3-(4-cyano-3-trifluoromethylphenyl)-5,5-dimethyl-2,4-dioxoimidazolidin-1-ylmethyl]phenylamino}-N-(2-hydroxyethyl)benzamide]	6
COc1ccc(Nc2ccccc2CN2C(=O)N(c3ccc(C#N)c(C(F)(F)F)c3)C(=O)C2(C)C)nn1 [Example 179, 4-{3-[2-(6-methoxypyridazin-3-ylamino)benzyl]-4,4-dimethyl-2,5-dioxoimidazolidin-1-yl}-2-trifluoromethylbenzonitrile]	16
COC(=O)c1ccc(Nc2cc(F)ccc2CN2C(=O)N(c3ccc(C#N)c(C(F)(F)F)c3)C(=O)C2(C)C)cc1 [Example 111, Methyl 4-{2-[3-(4-cyano-3-trifluoromethylphenyl)-5,5-dimethyl-2,4-dioxoimidazolidin-1-ylmethyl]-5-fluorophenylamino}benzoate]	1
CC1(C)C(=O)N(c2ccc(C#N)c(C(F)(F)F)c2)C(=O)N1Cc1ccccc1Nc1ccc(C=O)cc1 [Example 120, 4-{3-[2-(4-formylphenylamino)benzyl]-4,4-dimethyl-2,5-dioxoimidazolidin-1-yl}-2-trifluoromethylbenzonitrile]	5
COc1ccc(Nc2ccccc2)c(CN2C(=O)N(c3ccc(C#N)c(C(F)(F)F)c3)C(=O)C2(C)C)c1 [Example 6, 4-[3-(5-Methoxy-2-phenylaminobenzyl)-4,4-dimethyl-2,5-dioxoimidazolidin-1-yl]-2-trifluoromethylbenzonitrile]	21
CC1(C)C(=O)N(c2ccc(C#N)c(C(F)(F)F)c2)C(=O)N1Cc1ccccc1Nc1cccc(C(F)(F)F)c1 [Example 34, 4-{3-[2-(3-trifluoromethylphenylamino)benzyl]-4,4-dimethyl-2,5-dioxoimidazolidin-1-yl}-2-trifluoromethylbenzonitrile]	14
CC1(C)C(=O)N(c2ccc(C#N)c(C(F)(F)F)c2)C(=O)N1Cc1cc(F)ccc1Nc1ccccc1 [Example 18, 4-[3-(5-fluoro-2-phenylaminobenzyl)-4,4-dimethyl-2,5-dioxoimidazolidin-1-yl]-2-trifluoromethylbenzonitrile]	5
CC1(C)C(=O)N(c2ccc(C#N)c(C(F)(F)F)c2)C(=O)N1Cc1cc(F)ccc1Nc1ccc(Cl)cc1 [Example 16, 4-{3-[2-(4-chlorophenylamino)-5-fluorobenzyl]-4,4-dimethyl-2,5-dioxoimidazolidin-1-yl}-2-trifluoromethylbenzonitrile]	2
CC1(C)C(=O)N(c2ccc(C#N)c(C(F)(F)F)c2)C(=O)N1Cc1ccccc1Nc1ccc([N+](=O)[O-])cc1 [Example 112, 4-{4,4-dimethyl-3-[2-(4-nitrophenylamino)benzyl]-2,5-dioxoimidazolidin-1-yl}-2-trifluoromethylbenzonitrile]	1
COC(=O)c1cc(Nc2ccccc2CN2C(=O)N(c3ccc(C#N)c(C(F)(F)F)c3)C(=O)C2(C)C)ccc1OC [Example 129, methyl 5-{2-[3-(4-cyano-3-trifluoromethylphenyl)-5,5-dimethyl-2,4-dioxoimidazolidin-1-ylmethyl]phenylamino}-2-methoxybenzoate]	10
COc1ccc(Nc2ccc(F)cc2)c(CN2C(=O)N(c3ccc(C#N)c(C(F)(F)F)c3)C(=O)C2(C)C)c1 [Example 7, 4-{3-[2-(4-fluorophenylamino)-5-methoxybenzyl]-4,4-dimethyl-2,5-dioxoimidazolidin-1-yl}-2-trifluoromethylbenzonitrile]	15
CC1(C)C(=O)N(c2ccc(C#N)c(C(F)(F)F)c2)C(=O)N1Cc1cc(F)ccc1Nc1ccc(F)cc1 [Example 15, 4-{3-[5-Fluoro-2-(4-fluorophenylamino)benzyl]-4,4-dimethyl-2,5-dioxoimidazolidin-1-yl}-2-trifluoromethylbenzonitrile]	2
CC1(C)C(=O)N(c2ccc(C#N)c(C(F)(F)F)c2)C(=O)N1Cc1ccccc1Nc1ccc(S(C)(=O)=O)cc1 [Example 27, 4-{3-[2-(4-methylsulfonylphenylamino)benzyl]-4,4-dimethyl-2,5-dioxoimidazolidin-1-yl}-2-trifluoromethylbenzonitrile]	17
COc1ccc(Nc2ccc(C(F)(F)F)cc2)c(CN2C(=O)N(c3ccc(C#N)c(C(F)(F)F)c3)C(=O)C2(C)C)c1 [Example 8, 4-{3-[5-methoxy-2-(4-trifluoromethylphenylamino)benzyl]-4,4-dimethyl-2,5-dioxoimidazolidin-1-yl}-2-trifluoromethylbenzonitrile]	15
N#Cc1ccc(N2C(=O)N(Cc3ccccc3Nc3ccccc3)C3(CCCCC3)C2=O)cc1C(F)(F)F [Example 28, 4-[2,4-Dioxo-1-(2-phenylaminobenzyl)-1,3-diazaspiro[4.5]dec-3-yl]-2-trifluoromethylbenzonitrile]	87
CC1(C)C(=O)N(c2ccc(C#N)c(C(F)(F)F)c2)C(=O)N1Cc1ccccc1Nc1ccc(Oc2ccccc2)cc1 [Example 128, 4-{4,4-dimethyl-2,5-dioxo-3-[2-(4-phenoxyphenylamino)benzyl]-imidazolidin-1-yl}-2-trifluoromethylbenzonitrile]	2

Same assay, conditions: CHO-K1/cannabinoid CB1 protein 2 μg/well; [3H]-SR141716A 0.5 nM; Ki from IC50 by Cheng-Prusoff; average of double determination; read-out: hCB1R; binding Ki

SMILES	Ki [nM]
CC1(C)C(=O)N(c2ccc(C#N)c(C(F)(F)F)c2)C(=O)N1Cc1ccccc1Nc1ccc(N(S(C)(=O)=O)S(C)(=O)=O)cc1 [Example 176]	130
CC1(C)C(=O)N(c2ccc(C#N)c(C(F)(F)F)c2)C(=O)N1Cc1cccc(Nc2ccccc2)c1 [Example 29, 4-[4,4-Dimethyl-2,5-dioxo-3-(3-phenylaminobenzyl)imidazolidin-1-yl]-2-trifluoromethylbenzonitrile]	107
CC1(C)C(=O)N(c2ccc(F)c(C(F)(F)F)c2)C(=O)N1Cc1ccc(F)cc1Nc1ccc(C(=O)NC[C@H](O)[C@@H](O)[C@H](O)[C@H](O)CO)cc1 [Example 170, 4-{5-Fluoro-2-[3-(4-fluoro-3-trifluoromethylphenyl)-5,5-dimethyl-2,4-dioxoimidazolidin-1-ylmethyl]phenylamino}-N-((2S,3R,4R,5R)-2,3,4,5,6-pentahydroxyhexyl)benzamide]	113
CC1(C)C(=O)N(c2ccc(C#N)nc2)C(=O)N1Cc1ccccc1Nc1ccc(F)cc1F [Example 70, 5-{3-[2-(2,4-difluorophenylamino)benzyl]-4,4-dimethyl-2,5-dioxoimidazolidin-1-yl}pyridine-2-carbonitrile]	27
COC(=O)c1ccc(Nc2cc(F)ccc2CN2C(=O)N(c3ccc(C#N)c(-c4ccc(Cl)cc4)c3)C(=O)C2(C)C)cc1 [Example 224, methyl 4-{2-[3-(4′-chloro-6-cyanobiphenyl-3-yl)-5,5-dimethyl-2,4-dioxoimidazolidin-1-ylmethyl]-5-fluorophenylamino}benzoate]	6

Target: T1, hCB1R
Experiment: In vitro functional assay (FLIPR, intracellular Ca2+) with recombinant HEK293 cells, CB1
Assay type: cell-based
Set-up: expressed in transfected cells; host or cells: HEK293
Conditions: recombinant HEK293 cells expressing CB1 and Galpha16; 20 min preincubation, then reference agonist; Ca2+ change; read-out: hCB1R: FLIPR; IC50
From the text: In Vitro Functional Assays with Recombinant Cells:

SMILES	IC50 [nM]
CC1(C)C(=O)N(c2ccnc(C(F)(F)F)c2)C(=O)N1Cc1ccccc1Nc1ccccc1 [Example 65, 5,5-Dimethyl-1-(2-phenylaminobenzyl)-3-(2-trifluoromethylpyridin-4-yl)imidazolidine-2,4-dione]	145
CC1(C)C(=O)N(c2ccc(C#N)c(C(F)(F)F)c2)C(=O)N1Cc1ccccc1Nc1ccc(O)cc1 [Example 135, 4-{3-[2-(4-Hydroxyphenylamino)benzyl]-4,4-dimethyl-2,5-dioxoimidazolidin-1-yl}-2-trifluoromethylbenzonitrile]	1
COC(=O)c1ccc(Nc2cc(F)ccc2CN2C(=O)N(c3ccc(F)c(C(F)(F)F)c3)C(=O)C2(C)C)cn1 [Example 255, Methyl 5-{5-fluoro-2-[3-(4-fluoro-3-trifluoromethylphenyl)-5,5-dimethyl-2,4-dioxoimidazolidin-1-ylmethyl]phenylamino}pyridine-2-carboxylate]	28
CC(C)(C)c1cc(N2C(=O)N(Cc3ccc(F)cc3Nc3ccc(F)cc3F)C(C)(C)C2=O)ccc1C#N [Example 221, 2-tert-butyl-4-{3-[2-(2,4-difluorophenylamino)-4-fluorobenzyl]-4,4-dimethyl-2,5-dioxoimidazolidin-1-yl}benzonitrile]	10
CC1(C)C(=O)N(c2ccc(C#N)c(-c3ccc(F)cc3)c2)C(=O)N1Cc1ccc(F)cc1Nc1ccc(C(=O)O)cc1 [Example 258, 4-{2-[3-(6-Cyano-4′-fluorobiphenyl-3-yl)-5,5-dimethyl-2,4-dioxoimidazolidin-1-ylmethyl]-5-fluorophenylamino}benzoic acid]	31
